Assay results: patent US20250025438A1, “Derivative of aspartic acid and use thereof in treatment of metabolic diseases such as hepatic fibrosis and non-alcoholic hepatitis” (SHENZHEN JINGTAI TECHNOLOGY CO., LTD., priority 2021, published 2025)
Where a name gives a salt, the structure may show the parent alone.

How the values were obtained:
Assay type in all cases: cell-based
IL-1β = assay: In vitro efficacy in semi-activated LX2 cells, qPCR: IL-1β; conditions: Homo sapiens, LX-2, 50 µM, 48 hours, Q-PCR, read-out: IL-1β mRNA inhibition rate
collagen III = assay: Semi-activated LX2 cells, Western blot: collagen III protein; conditions: 50-400 μM, 48 hours, FIG. 1, vs 50 μM aspartic acid
Method: 4. Western blotting to detect protein expression level
4.1 Extraction of total cell protein: The cells were taken out, the original culture medium was discarded, 1 to 2 mL of 1×PBS was added, washing was performed twice, digestion was performed with trypsin, the supernatant was discarded, the cells at the bottom of the tube were gently moved by flicking, and then 1 mL of PBS was added again to wash the cells twice; after being centrifuged at 1200 rpm for 5 minutes, the supernatant was completely discarded, the cells at the bottom of the tube was mixed well by flicking. Depending on the amount of cells, 50 to 100 μL of protein lysis buffer containing protease inhibitor and phosphatase inhibitor was added, the cells were mixed thoroughly by pipetting, placed on ice and lysed for 30 minutes, then centrifuged at 12,000 rcf for 15 minutes at 4° C., and the supernatant was pipetted and transferred into a new EP tube to obtain the total cell protein, which could be directly used for subsequent determination of protein concentration or stored at −80° C.
4.2 Determination of protein concentration by BCA method: BCA reagent solution A and solution B were mixed well at a ratio of 50:1 to prepare a working solution; 5 μL of the sample to be tested was taken, added into 95 μL of deionized water, mixed, and diluted 20 times, and 20 μL of the diluted sample to be tested was taken and added to a 96-well plate; after 200 μL of the working solution was added, the 96-well plate was placed in a 37° C. incubator and incubated for 30 min, and then tested on the machine.
4.3 Protein denaturation: 100 μg of each of samples was taken respectively, supplemented with protein lysis buffer to reach the volume of each sample, then added with 4× loading buffer at 1/3 of the total volume and mixed thoroughly, underwent denaturation at 99° C. for 10 min, centrifuged and stored at −80° C. […]

collagen I = assay: Semi-activated LX2 cells, Western blot: collagen I protein; conditions: 50-400 μM, 48 hours, FIG. 1, vs 50 μM aspartic acid

Compound	inhibition at 50 µM (IL-1β) [%]	inhibitory effect on collagen III protein expression as compared to ASP (collagen III)	inhibitory effect on collagen I protein expression as compared to ASP (collagen I)
COC(=O)[C@@H](N)CC(=O)O [Compound 4]	1 to 10		
COC(=O)C[C@H](N)C(=O)O [Compound 6]	1 to 10	stronger inhibitory effects	stronger inhibitory effects
N[C@@H](CCC(=O)O)C(=O)O [Compound 47]	1 to 10	stronger inhibitory effects	stronger inhibitory effects
COC(=O)C[C@H](N)C(=O)OCOC(=O)[C@@H](N)CC(=O)OC [Compound 54, 4-dimethyl O′1,01-methylene (2S,2'S)-bis (2-aminosuccinate) hydrochloride]		stronger inhibitory effects	stronger inhibitory effects
